# Assay results from patent publication US9156824B2, “CDC7 inhibitors” (Eli Lilly and Company, priority 2013, dated 2015).
# pIC50: −log10 of the molar value. Marks after values point to notes of the source that are not given here.
# What was measured:
# [1] = Antitumor efficacy in human colorectal carcinoma SW620 mouse xenograft model; type: in vivo; settings: female, athymic Balb/c nude, mouse, in vivo, po; BID orally for 2 weeks, tumor-bearing nude mice; read-out: maximum tolerated dose
# Procedure: (§1) The in vivo anticancer activity of Example 4 is studied in human colorectal adenocarcinoma cell line SW620 mouse xenograft tumor model which is predicted to be sensitive based on in vitro cell counting proliferative assay data described above. The SW620 cell line is obtained from American Type Culture Collection (ATCC) and is cultured in Leibovitz's L-15 Medium with 10% fetal bovine serum following ATCC instructions. SW620 cell suspension (5.0×10^6/0.2 mL) is injected subcutaneously to the right flank of each female athymic Balb/c nude mice. The mice (5-6 weeks old at arrival) are obtained from Shanghai Sippr-bk Laboratory Animals Ltd. Upon receipt and throughout the study, the animals are housed 5 animals per cage in appropriately sized solid-bottom cages with contact bedding Animals are acclimated for 7 days prior to implantation of the SW620 cells. Animals are fed with Shanghai Laboratory Animal Center certified Rodent Diet with 23% Protein ad libitum and autoclaved tap water is provided ad libitum. The animal room is maintained on a 12-hour light/dark cycle. When the tumor volume reaches an average of 154.9 mm^3 (9 days post tumor implantation), the tumor bearing animals are randomly grouped into 9 groups (8 animals/group) with similar mean tumor volume and body weight. The average body weight of the tumor-bearing mice is 17.3 g. The compound is formulated in HEC 1% w/v, P80 0.25% v/v, and antifoam 1520-US 0.025% v/v in deionized water by probe sonication for 15 minutes on ice and compound formulation is prepared daily for animal dosing. The formulated compound is administered at 10.4, 20.8 and 31.2 mg/kg doses (containing 10, 20 and 30 mg/kg active pharmaceutical ingredient API, respectively) twice a day (BID) by oral gavage (0.1 mL/20 g) for 2 weeks. The BID dosing is performed about 8 hours apart (approximately 9 am and 5 pm each day). The vehicle is also given BID as the control arm of the study. Tumor volume and body weight are measured 3 times a week in a blinded manner. Tumor volume is determined by caliper measurements (mm) and using the formula for an ellipsoid sphere: tumor volume (mm^3)=length×width^2/2, where length and width refer to the larger and smaller perpendicular dimensions collected at each measurement. The animal behavior and animal health are monitored twice a day during dosing period. The study is terminated on day 28 post treatment initiation.
# (§2) The statistical analysis of the tumor volume data begins with a data transformation to a log scale to equalize variance across time and treatment groups. The log volume data are analyzed with a two-way repeated measures analysis of variance by time and treatment using the MIXED procedures in SAS software (Version 9.3). The correlation model for the repeated measures is Spatial Power. Treated groups are compared to the control group at each time point. The MIXED procedure is also used separately for each treatment group to calculate adjusted means and standard errors at each time point. Both analyses account for the autocorrelation within each animal and the loss of data that occurs when animals with large tumors are removed from the study early. The adjusted means and standard errors are plotted for each treatment group versus time. The analysis comparing the treated groups to the control groups at each time point uses the log 10 tumor volumes and produces the p-values. For statistical significance of p-values shown, “***”=P<0.001.
# (§3) If T>T0, the Delta T/C, % calculation is used. […]
# SW620 xenograft tumors = assay: as above; type: in vivo; settings: for % T/C day 16: SW620 xenograft
# Procedure: as §1, §2, §3
# [2] = tested on: phosphorylated MCM2 at Serine 53 (pMCM2-S53) in H1299 cells; assay: Acumen imaging assay for detection of phosphorylated MCM2 in H1299 cells; type: cell-based; settings: 4 hours treatment, Hydrate, read-out: IC50, inhibition of pMCM2-S53
# Procedure: The Acumen® eX3 is used to determine the effect of compounds on the formation of endogenous phosphorylated MCM2 at Serine 53 (pMCM2-S53). Phosphorylation of MCM2 by CDC7 is determined using specific anti-pMCM2-S53 antibody and quantified with fluorescent tagged secondary antibodies by Acumen® eX3 to monitor CDC7 activity in cells. Phosphorylation of MCM2 at Serine 53 is known to be correlated to CDC7 inhibition.
# H1299 cells (ATCC #CRL-5803) are maintained in RPMI-1640 (Hyclone SH30809.01) growth medium supplemented with 10% FBS. Cells are harvested using standard cell culture procedures and then counted using Vi-Cell XR Cell Viability Analyzer (Beckman Counter). 3000-6000 H1299 cells in 100 μL of growth medium are plated into each well of Biocoat Poly-D-Lysine 96-well black/clear plate with flat bottom BioCoat™ Multiwell (Becton Dickinson) cell culture plates 356640 and incubated overnight at 37° C., 5% CO2.
# Cells are treated with the test compound (50 μL/well) diluted in medium containing 0.6% DMSO and incubated for 4 hours at 37° C. To each well is added 7.4% formaldehyde (150 μL) diluted with PBS from 37% formaldehyde stock and the plates are incubated at room temperature for 30 minutes. Formaldehyde is removed and cold methanol (100 μL) is added. The plates are incubated for 20 minutes at 4° C. to permeabilize the cells. Plates are washed 3× with 100 μL/well of PBS. […] The plates are sealed with black seal and are read on the Acumen® eX3 (TTP LABTECH) using optical filter 500-530 nanometer and 575-640 nanometer for Alexa Fluor 488 and propidium iodide, respectively. The number of pMCM2-S53 positive cells is normalized to total cells for each well and are calculated as percent inhibition relative to on-plate controls. […]
smiles,measurement,setting,value
"CC1(c2ncncc2F)NC(=O)c2cc(-c3cn[nH]c3)ccc21 (single isomer, unassigned; isomer 2) [Example 4, 3-(5-Fluoropyrimidin-4-yl)-3-methyl-6-(1H-pyrazol-4-yl)isoindolin-1-one, Isomer 2, Hydrate]",MTD at 2 weeks,[1],31.2 mg/kg
same,% T/C day 16,"SW620 xenograft tumors; 10.4 mg/kg BID × 14, orally",26.1*** %
same,% T/C day 16,"SW620 xenograft tumors; 20.8 mg/kg BID × 14, orally",5.7*** %
same,% T/C day 16,"SW620 xenograft tumors; 31.2 mg/kg BID × 14, orally, negative value = regression",−66.1*** %
same,tumor growth after dosing cessation,"SW620 xenograft tumors; 31.2 mg/kg BID, 2 weeks after dosing cessation",no significant tumor growth
same,pIC50,[2],6.54
